Reference: patent US20030138399A1, “Anti-inflammatory therapy for inflammatory mediated infection” (priority 1999, published 2003)
Where two headings read alike, the source gives them in different places.

Columns and labels:
[1] = tested on: HIV pNLlucΔBgl pseudotyped with M-tropic JRFL envelope; assay: HIV replication (luciferase expression) in activated PBMCs, M-tropic pseudotyped virus; type: cell-based; conditions: 4 days in culture
Description: (§1) The PBMCs comprise a heterogeneous population of CD4 and CD8 cells with chemokines and cytokines present in the medium. […] Replication incompetent HIV pNLlucΔBgl pseudotyped with either M-tropic JRFL or T-tropic LAI envelope was used for the infection. Luciferase expression was used to assess the degree of HIV replication after 4 days in culture. Medication treated cultures were compared with samples receiving no drug. Cells were analyzed by flow cytometry for cell death after 4 days by staining with 7-AAD.

[2] = tested on: HIV pNLlucΔBgl pseudotyped with T-tropic LAI envelope; assay: HIV replication (luciferase expression) in activated PBMCs, T-tropic pseudotyped virus; type: cell-based; conditions: 4 days in culture
Description: as §1

activated PBMCs = conditions: 4 days
Description: as §1

[3] = tested on: HIV virus that expresses luciferase when replicated; assay: FIG. 19: HIV replication in cultured infected cells, luciferase by luminometer; type: cell-based
Description: Cultured cells infected with HIV were treated with 5-ASA or AZT in the amounts indicated. Luciferase expression, which indicates the amount of HIV replication, was quantified using a luminometer. The data shown represent nine separate studies.
(§2) Using a culture of cells that are infected with an HIV virus that expresses luciferase when replicated, but without any treatment as a control, Asacol at the two lowest doses (30 and 300 micrograms) is able to inhibit HIV replication by approximately 20%. At the 3000 microgram dose, the amount of suppression is higher, but this is due, in part, to cellular toxicity of the drug at this dose (approximately 30% cell death vs. 13-15% cell death for 30 and 300 microgram doses; AZT produces approximately 16% cell death at a dose of 5 μg). […] While the anti-inflammatory activity of Asacol is not as potent at suppressing HIV replication as is AZT, the activity is nonetheless statistically significant.

[4] = tested on: cultured cells infected with HIV; assay: FIG. 19 study: cell death (cellular toxicity of the drug); type: cell-based
Description: as §2

Row | SMILES | % Change from untreated culture (luciferase expression), M-tropic HIV ([1]; 3 μM) | % Change from untreated culture (luciferase expression), M-tropic HIV ([1]; 30 μM) | % Change from untreated culture (luciferase expression), M-tropic HIV ([1]; 300 μM) | % Change from untreated culture (luciferase expression), M-tropic HIV ([1]; 3000 μM, *P < .05) | % Change from untreated culture (luciferase expression), T-Tropic HIV ([2]; 2 μM) | % Change from untreated culture (luciferase expression), T-Tropic HIV ([2]; 20 μM) | % Change from untreated culture (luciferase expression), T-Tropic HIV ([2]; 200 μM) | % death (activated PBMCs; 30 μM) | % death (activated PBMCs; 300 μM) | % death (activated PBMCs; 3000 μM) | amount of suppression of HIV replication ([3]; 3000 microgram dose, compared with lower doses) | inhibition of HIV replication ([3]; two lowest doses (30 and 300 micrograms)) | cell death ([4]; 30 and 300 microgram doses) | cell death ([4]; 3000 microgram dose) | % Change from untreated culture (luciferase expression), M-tropic HIV ([1]; 5 μM, *P < .05) | % Change from untreated culture (luciferase expression), T-Tropic HIV ([2]; 5 μM, *P < .05) | cell death ([4]; dose of 5 μg)
1 | Nc1ccc(O)c(C(=O)O)c1 [5-ASA, 5-aminosalicylic acid] | 46.2% | 50.3% | 48.9% | 67.6* % | 3.2% | 22.4% | 26.0% | 7.3% | 9.4% | 13.3% | higher | approximately 20% | 13-15% | approximately 30% |  |  | 
2 | Cc1cn([C@H]2C[C@H](N=[N+]=[N-])[C@@H](CO)O2)c(=O)[nH]c1=O [AZT, zidovudine] |  |  |  |  |  |  |  |  |  |  |  |  |  |  | 80.0* % | 99.3* % | approximately 16%
